Measured values published in ChEMBL document CHEMBL1156468, “Crystal structures of Saccharomyces cerevisiae N-myristoyltransferase with bound myristoyl-CoA and inhibitors reveal the functional roles of the N-terminal region” (J Biol Chem, 2007).
Positions count from the first letter of the chain named. Numbers in names are those of the source. Blank lines part the entries; values can stand above or below the molecule they belong to.

Experiments:
[1] = target: T1, Glycylpeptide N-tetradecanoyltransferase (Saccharomyces cerevisiae S288c, UniProt P14743); experiment: Inhibition of Saccharomyces cerevisiae NMT
T1 sequence (P14743 whole entry): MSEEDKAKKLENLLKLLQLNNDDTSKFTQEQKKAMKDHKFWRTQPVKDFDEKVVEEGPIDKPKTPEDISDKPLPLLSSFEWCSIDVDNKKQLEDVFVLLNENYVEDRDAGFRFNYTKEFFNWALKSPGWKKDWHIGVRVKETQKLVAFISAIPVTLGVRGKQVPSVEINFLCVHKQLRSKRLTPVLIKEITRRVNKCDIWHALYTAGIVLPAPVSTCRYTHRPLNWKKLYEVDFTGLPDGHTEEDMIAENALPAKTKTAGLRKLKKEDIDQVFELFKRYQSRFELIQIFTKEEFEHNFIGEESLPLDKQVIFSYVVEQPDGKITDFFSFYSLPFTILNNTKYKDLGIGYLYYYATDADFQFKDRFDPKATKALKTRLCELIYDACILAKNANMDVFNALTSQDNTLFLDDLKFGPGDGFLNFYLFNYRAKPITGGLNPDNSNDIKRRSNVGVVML

Saccharomyces cerevisiae [2] = experiment: Activity of Saccharomyces cerevisiae NMT NMT delta1-20 mutant assessed as production of coenzyme A after 1 hr
Saccharomyces cerevisiae [3] = experiment: Activity of Saccharomyces cerevisiae NMT NMT delta1-30 mutant assessed as production of coenzyme A after 1 hr
Saccharomyces cerevisiae [4] = experiment: Ratio of kcat to Km for Saccharomyces cerevisiae NMT delta1-30 mutant
Saccharomyces cerevisiae [5] = experiment: Ratio of kcat to Km for Saccharomyces cerevisiae NMT delta1-20 mutant
Saccharomyces cerevisiae [6] = experiment: Activity of Saccharomyces cerevisiae NMT NMT delta1-40 mutant assessed as production of coenzyme A after 1 hr
Saccharomyces cerevisiae [7] = experiment: Activity of Saccharomyces cerevisiae NMT D22K/D23K mutant assessed as production of coenzyme A after 1 hr
Saccharomyces cerevisiae [8] = experiment: Ratio of kcat to Km for Saccharomyces cerevisiae NMT D22K/D23K mutant
Saccharomyces cerevisiae [9] = experiment: Ratio of kcat to Km for Saccharomyces cerevisiae NMT delta1-40 mutant
[10] = substrate: CC(C)C[C@H](NC(=O)CN)C(=O)N[C@@H](Cc1ccccc1)C(=O)N[C@@H](C)C(=O)N[C@@H](CO)C(=O)N[C@@H](CCCCN)C(=O)N[C@@H](CC(C)C)C(=O)N[C@@H](Cc1ccccc1)C(=O)O; experiment: Activity of Saccharomyces cerevisiae wild type NMT assessed as production of coenzyme A after 1 hr
[11] = substrate: CC(C)C[C@H](NC(=O)CN)C(=O)N[C@@H](Cc1ccccc1)C(=O)N[C@@H](C)C(=O)N[C@@H](CO)C(=O)N[C@@H](CCCCN)C(=O)N[C@@H](CC(C)C)C(=O)N[C@@H](Cc1ccccc1)C(=O)O; experiment: Ratio of kcat to Km for Saccharomyces cerevisiae wild type NMT
[12] = substrate: CC(C)C[C@H](NC(=O)CN)C(=O)N[C@@H](Cc1ccccc1)C(=O)N[C@@H](C)C(=O)N[C@@H](CO)C(=O)N[C@@H](CCCCN)C(=O)N[C@@H](CC(C)C)C(=O)N[C@@H](Cc1ccccc1)C(=O)O; experiment: Activity of Saccharomyces cerevisiae NMT D22K mutant assessed as production of coenzyme A after 1 hr
[13] = substrate: CC(C)C[C@H](NC(=O)CN)C(=O)N[C@@H](Cc1ccccc1)C(=O)N[C@@H](C)C(=O)N[C@@H](CO)C(=O)N[C@@H](CCCCN)C(=O)N[C@@H](CC(C)C)C(=O)N[C@@H](Cc1ccccc1)C(=O)O; experiment: Ratio of kcat to Km for Saccharomyces cerevisiae NMT D22K mutant
[14] = substrate: CC(C)C[C@H](NC(=O)CN)C(=O)N[C@@H](Cc1ccccc1)C(=O)N[C@@H](C)C(=O)N[C@@H](CO)C(=O)N[C@@H](CCCCN)C(=O)N[C@@H](CC(C)C)C(=O)N[C@@H](Cc1ccccc1)C(=O)O; experiment: Ratio of kcat to Km for Saccharomyces cerevisiae NMT D22A mutant
[15] = substrate: CC(C)C[C@H](NC(=O)CN)C(=O)N[C@@H](Cc1ccccc1)C(=O)N[C@@H](C)C(=O)N[C@@H](CO)C(=O)N[C@@H](CCCCN)C(=O)N[C@@H](CC(C)C)C(=O)N[C@@H](Cc1ccccc1)C(=O)O; experiment: Activity of Saccharomyces cerevisiae NMT D22A mutant assessed as production of coenzyme A after 1 hr
[16] = substrate: CC(C)C[C@H](NC(=O)CN)C(=O)N[C@@H](Cc1ccccc1)C(=O)N[C@@H](C)C(=O)N[C@@H](CO)C(=O)N[C@@H](CCCCN)C(=O)N[C@@H](CC(C)C)C(=O)N[C@@H](Cc1ccccc1)C(=O)O; experiment: Activity of Saccharomyces cerevisiae NMT D22A/D23A mutant assessed as production of coenzyme A after 1 hr
[17] = substrate: CC(C)C[C@H](NC(=O)CN)C(=O)N[C@@H](Cc1ccccc1)C(=O)N[C@@H](C)C(=O)N[C@@H](CO)C(=O)N[C@@H](CCCCN)C(=O)N[C@@H](CC(C)C)C(=O)N[C@@H](Cc1ccccc1)C(=O)O; experiment: Ratio of kcat to Km for Saccharomyces cerevisiae NMT D22A/D23A mutant

IC50 [1]: 50 nM
Molecule: CCCCCCCCCCCCCC(=O)CSCCNC(=O)CCNC(=O)C(O)C(C)(C)COP(=O)(O)OP(=O)(O)OC[C@H]1O[C@@H](n2cnc3c(N)ncnc32)[C@H](O)[C@@H]1OP(=O)(O)O (stereo partly specified)

Km (Saccharomyces cerevisiae [2]): 27.7 µM
kcat (Saccharomyces cerevisiae [2]): 3.58 s⁻¹
Km (Saccharomyces cerevisiae [3]): 159 µM
kcat (Saccharomyces cerevisiae [3]): 3.85 s⁻¹
kcat/Km (Saccharomyces cerevisiae [4]): 2.43 ×10⁴ /M/s
kcat/Km (Saccharomyces cerevisiae [5]): 1.29 ×10⁵ /M/s
Km (Saccharomyces cerevisiae [6]): 162 µM
kcat (Saccharomyces cerevisiae [6]): 4.03 s⁻¹
Km (Saccharomyces cerevisiae [7]): 150 µM
kcat (Saccharomyces cerevisiae [7]): 4.73 s⁻¹
kcat/Km (Saccharomyces cerevisiae [8]): 3.16 ×10⁴ /M/s
kcat/Km (Saccharomyces cerevisiae [9]): 2.48 ×10⁴ /M/s
Molecule: H-GLFASKLF-OH

IC50 [1]: 24 nM
Molecule: Cc1nccn1CCCCc1ccc(CC(=O)N[C@@H](CO)C(=O)N[C@@H](CCCCN)C(=O)NCCC2CCCCC2)cc1 [SC-58272]

B1: Glycylpeptide N-tetradecanoyltransferase (Saccharomyces cerevisiae S288c), P14743 (protein)
chain: T1 sequence (P14743 whole entry)
Km [10]: 13.7 µM
kcat [10]: 3.06 s⁻¹
kcat/Km [11]: 2.24 ×10⁵ /M/s

B2: Glycylpeptide N-tetradecanoyltransferase (Saccharomyces cerevisiae S288c), P14743 D22K (protein)
chain: T1 sequence (P14743 whole entry) with D22K
Km [12]: 23.8 µM
kcat [12]: 2.5 s⁻¹
kcat/Km [13]: 1.05 ×10⁵ /M/s

B3: Glycylpeptide N-tetradecanoyltransferase (Saccharomyces cerevisiae S288c), P14743 D22A (protein)
chain: T1 sequence (P14743 whole entry) with D22A
kcat/Km [14]: 9.03 ×10⁴ /M/s
Km [15]: 19 µM
kcat [15]: 1.72 s⁻¹

B4: Glycylpeptide N-tetradecanoyltransferase (Saccharomyces cerevisiae S288c), P14743 D22A,D23A (protein)
chain: T1 sequence (P14743 whole entry) with D22A, D23A
Km [16]: 92.4 µM
kcat [16]: 3.83 s⁻¹
kcat/Km [17]: 4.15 ×10⁴ /M/s
